Data as given in US8716289B2, “Carbamate derivatives of alkyl-heterocycles, preparation thereof and therapeutic use thereof” (Sanofi, priority 2008, dated 2014).

What was measured:
[1] = target: T1, enzyme FAAH (Fatty Acid Amide Hydrolase) (Mus musculus, UniProt O08914); assay: FAAH radioenzymatic test, hydrolysis of anandamide [ethanolamine 1-3H] (Protocol 1); assay type: biochemical; conditions: mouse brain membrane homogenate, anandamide 10 μM, preincubation 20 min at 25° C.
T1 construct: The membrane homogenates are prepared extemporaneously by homogenizing the tissues; from tissue; host or cells: mouse brain (minus the cerebellum), membrane homogenate
T1 sequence (O08914 1-579): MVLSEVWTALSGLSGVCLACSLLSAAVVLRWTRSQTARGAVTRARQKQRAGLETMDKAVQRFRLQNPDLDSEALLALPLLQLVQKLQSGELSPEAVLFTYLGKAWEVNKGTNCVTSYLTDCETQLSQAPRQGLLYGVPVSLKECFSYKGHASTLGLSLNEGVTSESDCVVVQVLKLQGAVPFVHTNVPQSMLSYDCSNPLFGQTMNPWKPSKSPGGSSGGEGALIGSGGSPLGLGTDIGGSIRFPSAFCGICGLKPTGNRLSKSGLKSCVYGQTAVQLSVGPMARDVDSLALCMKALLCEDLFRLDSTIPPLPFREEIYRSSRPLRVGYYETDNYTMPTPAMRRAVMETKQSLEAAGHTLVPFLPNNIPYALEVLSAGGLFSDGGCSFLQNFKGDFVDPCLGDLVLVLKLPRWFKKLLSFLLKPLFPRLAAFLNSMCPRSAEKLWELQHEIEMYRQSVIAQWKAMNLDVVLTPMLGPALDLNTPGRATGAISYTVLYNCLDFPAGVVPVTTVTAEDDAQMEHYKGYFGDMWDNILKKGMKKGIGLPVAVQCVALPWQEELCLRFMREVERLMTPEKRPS
Procedure: Thus, mouse brains (minus the cerebellum) are removed and stored at −80° C. The membrane homogenates are prepared extemporaneously by homogenizing the tissues using a Precellys® machine in reaction buffer (10 mM Tris-HCl, pH=8, 150 mM NaCl and 1 mM ethylenediaminetetraacetic acid (EDTA)). The enzymatic reaction is performed in 96-well Multiscreen filtration plates in a final volume of 70 μL. Reaction buffer supplemented with fatty acid-free bovine serum albumin (BSA, 1 mg/ml) is used for the enzymatic reaction and the dilution of the compounds and of the anandamide [ethanolamine 1-^3H]. The reaction buffer containing BSA (43 μL/well), the diluted test compounds at different concentrations (7 μL/well containing 1% DMSO) and the membrane preparation (10 μL/well, i.e. […] of tissue per test) are successively added to the wells. After preincubation for 20 minutes of the compounds with the enzyme at 25° C., the reaction is started by adding anandamide [ethanolamine 1-^3H]. (Specific activity of 15-20 Ci/mmol) diluted with cold anandamide (10 μL/well, final concentration of 10 μM, 0.01 ρCi per test). After incubation for 20 minutes at 25° C., the enzymatic reaction is stopped by adding a […] solution of active charcoal prepared in 1.5M NaCl buffer and 0.5 M HCl (50 μL/well). The mixture is stirred for 10 minutes and the aqueous phase containing the ethanolamine [1-^3H] is then recovered by filtration under vacuum and counted by liquid scintillation.

male OF1 mice = assay: test of analgesia: PBQ-induced abdominal stretching; assay type: in vivo, mouse; conditions: 30 mg/kg p.o. at 120 minutes
Procedure: The in vivo activity of the compounds of the invention was evaluated in a test of analgesia.
Thus, the intraperitoneal (i.p.) administration of PBQ (phenylbenzoquinone, 2 mg/kg in 0.9% sodium chloride solution containing 5% ethanol) to male OF1 mice weighing 25 to 30 g causes abdominal stretching, on average 30 torsions or contractions within a period of 5 to 15 minutes after injection. The test compounds are administered orally (p.o.) or intraperitoneally (i.p.) suspended in Tween 80 at 0.5%, 60 minutes or 120 minutes before the administration of PBQ. Under these conditions, the compounds of the invention that are the most powerful reduce by 30% to 80% the number of stretches induced with PBQ, over a dose range of between 1 and 30 mg/kg.

Row | Structure (SMILES) | IC50 [1] [nM] | melting point [°C] | reduction of the number of stretches induced with PBQ (male OF1 mice) [%]
1 | Cn1ncnc1COC(=O)NCCC1CCN(c2ccc3cc(Cl)ccc3n2)CC1 [Compound 2, 2-methyl-2H-[1,2,4]triazol-3-ylmethyl 2-[1-(6-chloroquinolin-2-yl)piperidin-4-yl]ethylcarbamate] | 40 | 122 to 124 | –
2 | Cn1ccc(COC(=O)NCCCC2CCN(c3nccc(C(F)(F)F)n3)CC2)n1 [Compound 52] | 28 | – | –
3 | CCOC(=O)c1cc(COC(=O)NCC2(F)CCN(c3ccc4cc(Cl)ccc4n3)CC2)on1 [Compound 56, ethyl 5-[1-(6-chloroquinolin-2-yl)-4-fluoropiperidin-4-ylmethylcarbamoyloxymethyl]isoxazole-3-carboxylate] | – | 132 to 134 | –
4 | CNC(=O)c1cc(COC(=O)NCC2(F)CCN(c3nccc(C(F)(F)F)n3)CC2)on1 [Compound 57, 3-methylcarbamoylisoxazol-5-ylmethyl [4-fluoro-1-(4-trifluoromethylpyrimidin-2-yl)piperidin-4-yl]methylcarbamate] | – | 187 to 189 | –
5 | CC(C)c1nc(COC(=O)NCC2CCN(c3nnc(Cl)c4ccccc34)CC2)no1 [Compound 59, 5-isopropyl[1,2,4]oxadiazol-3-ylmethyl [1-(4-chlorophthalazin-1-yl)piperidin-4-yl]methylcarbamate] | – | 139 to 141 | –
6 | CCC1(CCNC(=O)OCc2cc(C(=O)NC)no2)CCN(c2cnc3cc(Cl)ccc3n2)CC1 [Compound 64] | 3 | – | –
7 | CNC(=O)c1cc(COC(=O)NCCC2(CC(C)C)CCN(c3ccc([N+](=O)[O-])cc3C(F)(F)F)CC2)on1 [Compound 66, 3-methylcarbamoylisoxazol-5-ylmethyl {2-[4-isobutyl-1-(4-nitro-2-trifluoromethylphenyl)piperidin-4-yl]ethyl}carbamate] | – | 145 to 147 | –
8 | CC(C)c1nc(COC(=O)NCC2CCN(c3nccc4ccccc34)CC2)no1 [Compound 67, 5-isopropyl[1,2,4]oxadiazol-3-ylmethyl (1-isoquinolin-1-ylpiperidin-4-ylmethyl)carbamate] | – | 95 to 97 | –
9 | CNC(=O)c1cc(COC(=O)NC2CCN(c3nccc(C(F)(F)F)n3)CC2)on1 [Compound 70, 3-methylcarbamoylisoxazol-5-ylmethyl [1-(4-trifluoromethylpyrimidin-2-yl)piperidin-4-yl]carbamate] | – | 197 to 199 | –
10 | CNC(=O)c1cc(COC(=O)NCCC2(C)CCN(c3nccc(C(F)(F)F)n3)CC2)on1 [Compound 72, 3-methylcarbamoylisoxazol-5-ylmethyl {2-[4-methyl-1-(4-trifluoromethylpyrimidin-2-yl)piperidin-4-yl]ethyl}carbamate] | – | 160 to 162 | –
11 | CNC(=O)c1cc(COC(=O)NC2CCN(c3ccc([N+](=O)[O-])cc3C(F)(F)F)CC2)on1 [Compound 76, 3-methylcarbamoylisoxazol-5-ylmethyl [1-(4-nitro-2-trifluoromethylphenyl)piperidin-4-yl]carbamate] | – | 156 to 158 | –
12 | NC(=O)c1cc(COC(=O)NCCC2CN(c3nccc(C(F)(F)F)n3)C2)on1 [Compound 82, 3-carbamoylisoxazol-5-ylmethyl {2-[1-(4-trifluoromethylpyrimidin-2-yl)azetidin-3-yl]ethyl}carbamate] | – | 163 to 165 | –

Second part, led by results:

Row | IC50 [1] [nM] | melting point [°C] | Structure (SMILES) | reduction of the number of stretches induced with PBQ (male OF1 mice) [%]
13 | 1 | 220 to 222 | NC(=O)c1cc(COC(=O)NCCC2CCN(c3ccc4cc(Cl)ccc4n3)CC2)on1 [Compound 1, 3-carbamoylisoxazol-5-ylmethyl 2-[1-(6-chloroquinolin-2-yl)piperidin-4-yl]ethylcarbamate] | 55
14 | 2 | 110 to 112 | CCc1noc(COC(=O)NCCC2CCN(c3ccc(-c4ccc(F)cc4)cn3)CC2)n1 [Compound 5, 3-ethyl[1,2,4]oxadiazol-5-ylmethyl 2-[5′-(4-fluorophenyl)-3,4,5,6-tetrahydro-2H-[1,2′]bipyridinyl-4-yl]-ethylcarbamate] | –
15 | 2 | 139 to 141 | O=C(NCCC1CCN(c2ccc(-c3ccc(F)cc3)cn2)CC1)OCc1csnn1 [Compound 9, [1,2,3]thiadiazol-4-ylmethyl 2-[5′-(4-fluorophenyl)-3,4,5,6-tetrahydro-2H-[1,2′]bipyridinyl-4-yl]ethylcarbamate] | –
16 | 47 | 169 to 170 | O=C(NCCC1CCN(c2ccc3cc(Cl)ccc3n2)CC1)OCc1nnc(-c2ccc(F)cc2)o1 [Compound 12, 5-(4-fluorophenyl)[1,3,4]oxadiazol-2-ylmethyl 2-[1-(6-chloroquinolin-2-yl)piperidin-4-yl]ethylcarbamate] | –
17 | 1 | 202 to 204 | NC(=O)c1cc(COC(=O)NCCC2CCN(c3ccc(-c4ccc(F)cc4)cn3)CC2)on1 [Compound 19, 3-carbamoylisoxazol-5-ylmethyl 2-[5′-(4-fluorophenyl)-3,4,5,6-tetrahydro-2H-[1,2′]bipyridinyl-4-yl]ethylcarbamate] | 30
18 | 2 | – | NC(=O)c1cc(COC(=O)NCCC2CCN(c3nccc(C(F)(F)F)n3)CC2)on1 [Compound 38] | –
19 | 0.6 | – | NC(=O)c1cc(COC(=O)NCCC2CCN(c3ccc(-c4ccc(F)cc4)nn3)CC2)on1 [Compound 41] | –
20 | 16 | – | CN1CCN(C(=O)c2cc(COC(=O)NCCC3CCN(c4ccc(-c5ccc(F)cc5)cn4)CC3)on2)CC1 [Compound 46] | –
21 | – | 187 to 189 | NC(=O)c1cc(COC(=O)NCCC2CCN(c3cnc(-c4ccc(F)cc4)cn3)CC2)on1 [Compound 68, 3-carbamoylisoxazol-5-ylmethyl (2-{1-[5-(4-fluorophenyl)-pyrazin-2-yl]piperidin-4-yl}ethyl)carbamate] | –
22 | – | 181.5 to 183.5 | CNC(=O)c1cc(COC(=O)NCCC2CCN(c3cnc(-c4ccc(F)cc4)cn3)CC2)on1 [Compound 69, 3-methylcarbamoylisoxazol-5-ylmethyl (2-{1-[5-(4-fluorophenyl)pyrazin-2-yl]piperidin-4-yl}ethyl)carbamate] | –
23 | – | 117 to 119 | CCOC(=O)c1cc(COC(=O)NCCC2CCN(c3ccc4cc(Cl)ccc4n3)CC2)on1 [Compound 71, ethyl 5-{2-[1-(6-chloroquinolin-2-yl)piperidin-4-yl]-ethylcarbamoyloxymethyl}isoxazole-3-carboxylate] | –
24 | – | 208 to 210 | CNC(=O)c1cc(COC(=O)NC2CCN(c3nnc(Cl)c4ccccc34)CC2)on1 [Compound 75, 3-methylcarbamoylisoxazol-5-ylmethyl [1-(4-chlorophthalazin-1-yl)piperidin-4-yl]carbamate] | –
25 | – | 232 to 234 | CNC(=O)c1cc(COC(=O)NC2CCN(c3cnc4cc(Cl)ccc4n3)CC2)on1 [Compound 77, 3-methylcarbamoylisoxazol-5-ylmethyl [1-(6-chloroquinoxalin-2-yl)piperidin-4-yl]carbamate] | –
26 | – | 167 to 169 | CNC(=O)c1cc(COC(=O)NCCC2(C)CCN(c3cnc4cc(Cl)ccc4n3)CC2)on1 [Compound 78, 3-methylcarbamoylisoxazol-5-ylmethyl {2-[1-(6-chloroquinoxalin-2-yl)-4-methylpiperidin-4-yl]ethyl}carbamate] | –
27 | – | 155 to 157 | CNC(=O)c1cc(COC(=O)NCCC2CN(c3nccc(C(F)(F)F)n3)C2)on1 [Compound 83, 3-methylcarbamoylisoxazol-5-ylmethyl {2-[1-(4-trifluoromethylpyrimidin-2-yl)azetidin-3-yl]ethyl}carbamate] | –
